Data taken from patent US4281121A, “1,3,4-Thiadiazole-2-carboxylic acid derivatives, process for making the same and fungicidal and nematocidal compositions containing same” (Schering Aktiengesellschaft, priority 1978, dated 1981).

The compounds below were run on Tilletia caries (assay: Treatment of oat seeds infested with Tilletia caries (spore germination)). Conditions: 5 g active agent per 100 kg.
Format: in vivo
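For fungus development on the surface of the nutrient solution (0-5) in this document: 0 means no fungus growth and higher grades mean more surface covered.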

SMILES	% activity [%]
CCS(=O)(=O)c1nnc(C(N)=O)s1 [5-ethylsulfonyl-1,3,4-thiadiazole-2-carboxamide]	87

Same assay, conditions: 10 g active agent per 100 kg

SMILES	% activity [%]
CCS(=O)(=O)c1nnc(C(N)=O)s1 [5-ethylsulfonyl-1,3,4-thiadiazole-2-carboxamide]	93

Same assay, conditions: 20 g active agent per 100 kg

SMILES	% activity [%]
CCS(=O)(=O)c1nnc(C(N)=O)s1 [5-ethylsulfonyl-1,3,4-thiadiazole-2-carboxamide]	100

What follows are compounds tested on Fusarium avenaceum (assay: Threshold concentration test in case of Fusarium avenaceum (infested soil, garden peas)). Conditions: 25 mg/l soil; 20 grains per dish; 18 days at 20-24° C.
Format: in vivo
Outline: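 Soil heavily infested with Fusarium avenaceum was mixed uniformly with a 20% powder formulation of active agent, then sown immediately with 20 garden pea seeds ('Wunder von Kelvedon') per dish. After 18 days in a greenhouse at 20° to 24° C., sound plants were counted and roots scored on a 1–4 scale.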

SMILES	number of sound peas
CCS(=O)(=O)c1nnc(C#N)s1 [5-ethylsulfonyl-1,3,4-thiadiazole-2-carbonitrile]	18

Same assay, conditions: 25 mg/l soil; 18 days

SMILES	root evaluation (1-4)
CCS(=O)(=O)c1nnc(C#N)s1 [5-ethylsulfonyl-1,3,4-thiadiazole-2-carbonitrile]	4

Same assay, conditions: 50 mg/l soil; 20 grains per dish; 18 days at 20-24° C.

SMILES	number of sound peas
CCS(=O)(=O)c1nnc(C#N)s1 [5-ethylsulfonyl-1,3,4-thiadiazole-2-carbonitrile]	20

Same assay, conditions: 50 mg/l soil; 18 days

SMILES	root evaluation (1-4)
CCS(=O)(=O)c1nnc(C#N)s1 [5-ethylsulfonyl-1,3,4-thiadiazole-2-carbonitrile]	4

Same assay, conditions: 100 mg/l soil; 20 grains per dish; 18 days at 20-24° C.

SMILES	number of sound peas
CCS(=O)(=O)c1nnc(C#N)s1 [5-ethylsulfonyl-1,3,4-thiadiazole-2-carbonitrile]	20

Same assay, conditions: 100 mg/l soil; 18 days

SMILES	root evaluation (1-4)
CCS(=O)(=O)c1nnc(C#N)s1 [5-ethylsulfonyl-1,3,4-thiadiazole-2-carbonitrile]	4

These compounds were tested on Pythium ultimum (assay: Threshold concentration test for use of the compounds against Pythium ultimum (infested soil, garden peas)). Conditions: 20 mg/l soil; 3 weeks.
Format: in vivo
Design: key to root evaluation (1-4): 4: white roots without fungous necrosis; 3: white roots, minor fungous necrosis; 2: brown roots, already more pronounced fungous necrosis; 1: heavy fungous necrosis, roots rotted
Outline: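 Garden pea seeds, 20 per dish, went straight into Pythium ultimum-infested soil into which 20% pulverulent formulations had been uniformly blended. Sound plants counted and roots rated 1–4 after three weeks of hothouse growth at 20–24 °C.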

SMILES	root evaluation (1-4)
CCS(=O)(=O)c1nnc(C#N)s1 [5-ethylsulfonyl-1,3,4-thiadiazole-2-carbonitrile]	2
CCS(=O)(=O)c1nnc(C(N)=O)s1 [5-ethylsulfonyl-1,3,4-thiadiazole-2-carboxamide]	2

Same assay, conditions: 20 mg/l soil; 20 grains per dish; 3 weeks at 20-24° C.

SMILES	number of sound peas
CCS(=O)(=O)c1nnc(C#N)s1 [5-ethylsulfonyl-1,3,4-thiadiazole-2-carbonitrile]	19
CCS(=O)(=O)c1nnc(C(N)=O)s1 [5-ethylsulfonyl-1,3,4-thiadiazole-2-carboxamide]	18

Same assay, conditions: 40 mg/l soil; 3 weeks

SMILES	root evaluation (1-4)
CCS(=O)(=O)c1nnc(C#N)s1 [5-ethylsulfonyl-1,3,4-thiadiazole-2-carbonitrile]	4
CCS(=O)(=O)c1nnc(C(N)=O)s1 [5-ethylsulfonyl-1,3,4-thiadiazole-2-carboxamide]	4

Same assay, conditions: 40 mg/l soil; 20 grains per dish; 3 weeks at 20-24° C.

SMILES	number of sound peas
CCS(=O)(=O)c1nnc(C#N)s1 [5-ethylsulfonyl-1,3,4-thiadiazole-2-carbonitrile]	20
CCS(=O)(=O)c1nnc(C(N)=O)s1 [5-ethylsulfonyl-1,3,4-thiadiazole-2-carboxamide]	18

Same assay, conditions: 80 mg/l soil; 3 weeks

SMILES	root evaluation (1-4)
CCS(=O)(=O)c1nnc(C#N)s1 [5-ethylsulfonyl-1,3,4-thiadiazole-2-carbonitrile]	4
CCS(=O)(=O)c1nnc(C(N)=O)s1 [5-ethylsulfonyl-1,3,4-thiadiazole-2-carboxamide]	4

Same assay, conditions: 80 mg/l soil; 20 grains per dish; 3 weeks at 20-24° C.

SMILES	number of sound peas
CCS(=O)(=O)c1nnc(C#N)s1 [5-ethylsulfonyl-1,3,4-thiadiazole-2-carbonitrile]	20
CCS(=O)(=O)c1nnc(C(N)=O)s1 [5-ethylsulfonyl-1,3,4-thiadiazole-2-carboxamide]	20

These compounds were tested on Botrytis cinerea (assay: Inhibition of fungus in a nutrient solution: Botrytis cinerea). Conditions: 0.002%, 6 days at 21-23° C.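 Also: 0 means no fungus growth and higher grades mean more surface covered.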
Format: cell-based

SMILES	fungus development on the surface of the nutrient solution (0-5)
CCS(=O)(=O)c1nnc(C#N)s1 [5-ethylsulfonyl-1,3,4-thiadiazole-2-carbonitrile]	1

Same assay, conditions: 0.004%, 6 days at 21-23° C.

SMILES	fungus development on the surface of the nutrient solution (0-5)
CCS(=O)(=O)c1nnc(C#N)s1 [5-ethylsulfonyl-1,3,4-thiadiazole-2-carbonitrile]	0

What follows are compounds tested on Penicillium digitatum (assay: Inhibition of fungus in a nutrient solution: Penicillium digitatum). Conditions: 0.002%, 6 days at 21-23° C.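 Also: 0 means no fungus growth and higher grades mean more surface covered.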
Format: cell-based

SMILES	fungus development on the surface of the nutrient solution (0-5)
CCS(=O)(=O)c1nnc(C#N)s1 [5-ethylsulfonyl-1,3,4-thiadiazole-2-carbonitrile]	0

Same assay, conditions: 0.004%, 6 days at 21-23° C.

SMILES	fungus development on the surface of the nutrient solution (0-5)
CCS(=O)(=O)c1nnc(C#N)s1 [5-ethylsulfonyl-1,3,4-thiadiazole-2-carbonitrile]	0

What follows are compounds tested on root gall nematodes (Meloidogyne sp.) (assay: Threshold concentration test with root gall nematodes (cucumber, infested soil)). Conditions: 50 mg per liter soil; 28 days at 24-27° C.
Format: in vivo
Description: Threshold concentration test with root gall nematodes (Meloidogyne sp.)
20% concentration pulverulent active agents as listed in the table below were mixed in a uniform manner with a soil which had been heavily infested by root gall nematodes. After waiting for 3 days the treated soil was placed in two clay dishes of a capacity of 0.5 liter. 10 grain of cucumber seeds of the type "Guntruud" were placed into each dish.
Thereafter, the contents of the dishes were permitted to develop at a temperature of 24° to 27° C. for a time of 28 days in a hothouse. The cucumber roots were then washed out and were examined in a water bath regarding nematode infestation. The reduction of the infestation by the active agents as compared with untreated control material was determined in percentages.
The nematocidal activity was calculated by the formula
A=the infestation in the untreated control material and
B=the infestation after treatment.

SMILES	Percentage reduction of infestation [%]
CSc1nnc(C#N)s1 [5-methylthio-1,3,4-thiadiazole-2-carbonitrile]	95

Same assay, conditions: 100 mg per liter soil; 28 days at 24-27° C.

SMILES	Percentage reduction of infestation [%]
CSc1nnc(C#N)s1 [5-methylthio-1,3,4-thiadiazole-2-carbonitrile]	99

Same assay, conditions: 200 mg per liter soil; 28 days at 24-27° C.

SMILES	Percentage reduction of infestation [%]
CSc1nnc(C#N)s1 [5-methylthio-1,3,4-thiadiazole-2-carbonitrile]	100

Each compound was assayed on Helminthosporium gram (assay: not given). Conditions: 10 g active agent per 100 kg; about 5 weeks.

SMILES	% activity [%]
CCS(=O)(=O)c1nnc(C(N)=O)s1 [5-ethylsulfonyl-1,3,4-thiadiazole-2-carboxamide]	97

Same assay, conditions: 20 g active agent per 100 kg; about 5 weeks

SMILES	% activity [%]
CCS(=O)(=O)c1nnc(C(N)=O)s1 [5-ethylsulfonyl-1,3,4-thiadiazole-2-carboxamide]	100

Same assay, conditions: 50 g active agent per 100 kg; about 5 weeks

SMILES	% activity [%]
CCS(=O)(=O)c1nnc(C(N)=O)s1 [5-ethylsulfonyl-1,3,4-thiadiazole-2-carboxamide]	100

The compounds below were run on Alternaria solani (assay: Inhibition of fungus in a nutrient solution: Alternaria solani). Conditions: 0.002%, 6 days at 21-23° C.
Format: cell-based

SMILES	fungus development on the surface of the nutrient solution (0-5)
CCS(=O)(=O)c1nnc(C#N)s1 [5-ethylsulfonyl-1,3,4-thiadiazole-2-carbonitrile]	0

Same assay, conditions: 0.004%, 6 days at 21-23° C.

SMILES	fungus development on the surface of the nutrient solution (0-5)
CCS(=O)(=O)c1nnc(C#N)s1 [5-ethylsulfonyl-1,3,4-thiadiazole-2-carbonitrile]	0

What follows are compounds tested on Fusarium avenaceum (assay: Inhibition of fungus in a nutrient solution: Fusarium avenaceum). Conditions: 0.002%, 6 days at 21-23° C.
Format: cell-based
Procedure: Inhibition of fungus in a nutrient solution
20 ml of a nutrient solution of grape juice and water (1:1) were filled into a glass vial of a 100 ml capacity and were mixed with the pulverulent active agents which appear from the subsequent table. Thereafter, the solution was inoculated with conidia (spores) of the test fungi.
After an incubation time of 6 days at 21° to 23° C. the fungus development on the surface of the nutrient solution was evaluated. The test fungi used were the following: Penicillium digitatum, Botrytis cinerea, Alternaria solani, Fusarium avenaceum.
The evaluation was carried out at a scale from 0 to 5 as follows: […]

SMILES	fungus development on the surface of the nutrient solution (0-5)
CCS(=O)(=O)c1nnc(C#N)s1 [5-ethylsulfonyl-1,3,4-thiadiazole-2-carbonitrile]	0

Same assay, conditions: 0.004%, 6 days at 21-23° C.

SMILES	fungus development on the surface of the nutrient solution (0-5)
CCS(=O)(=O)c1nnc(C#N)s1 [5-ethylsulfonyl-1,3,4-thiadiazole-2-carbonitrile]	0

What follows are compounds tested on Fusarium nivale (assay: Treatment of rye seeds against Fusarium nivale). Conditions: 100 g/100 kg; about 4 weeks.
Format: in vivo
Procedure: Treatment of rye seeds against Fusarium nivale
Rye seeds with a natural infestation by Fusarium nivale were seeded in earth filled pots and left for germination at about 6° C. Part of the seeds was treated before seeding with the active agents as appears from the subsequent table and part was untreated. After emergence of the seedlings the plants were illuminated with artificial light for 12 hours each day. After about 4 weeks the degree of infestation was determined in percentages. The fungicidal activity was calculated on the basis of the following formula: [formula]
The active agents were used in the form of 20% concentration compositions.

SMILES	% activity [%]
CCS(=O)(=O)c1nnc(C#N)s1 [5-ethylsulfonyl-1,3,4-thiadiazole-2-carbonitrile]	92
CCS(=O)(=O)c1nnc(C(N)=O)s1 [5-ethylsulfonyl-1,3,4-thiadiazole-2-carboxamide]	99.2
